From the METLIN SMRT retention time set (Domingo-Almenara et al. 2019)

Assay: gradient 5% acetonitrile 3 min, to 50% in 2 min, to 85% in 15 min, held 3 min, 100 µL/min
Conditions: column: Zorbax Extend-C18 2.1 x 50 mm; eluents: water / acetonitrile, 0.1% formic acid
Procedure, shortened: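 In both positive and negative ionization mode, a quadrupole time-of-flight mass spectrometer coupled to HPLC analyzed pure standards run in mixtures of ~100 molecules. The Zorbax Extend-C18 column (2.1 × 50 mm, 1.8 μm) was operated at 100 μL/min with water and acetonitrile, each containing 0.1% formic acid. The dead volume was 40 μL and the dwell volume 900 μL. Retention time came from adduct peaks that were computationally picked and individually inspected by hand.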

Work on `CC1=C(c2ccccc2)S(=O)(=O)N=C1N1CCCN(C(=O)c2cc(F)cc(F)c2)CC1` yielded an RP-LC retention time of 846 s.

In the case of `CN(C)CCN(C(=O)CN1C(=O)c2ccccc2C1=O)c1nc2ccc(Cl)cc2s1`, the RP-LC retention time is reported as 616 s.

With `COc1ccccc1COC(=O)C1=CN(Cc2ccccc2)S(=O)(=O)N=C1C` the RP-LC retention time was 1130 s.

Compound `Cc1nn(-c2ccccc2)c2c1-c1sc(C(=O)N3CCN(c4ccccn4)CC3)cc1CC2` has an RP-LC retention time of 671 s.

Work on `Cc1ccc(Nc2nc(Cl)nc3ncn(C)c23)c(C)c1` yielded an RP-LC retention time of 791 s.

`O=C(Cn1cccc(-c2nc(-c3ccc(F)cc3)no2)c1=O)N1CCN(c2ccc(F)cc2)CC1` showed an RP-LC retention time of 898 s.

Work on `O=C(CCc1nnn2c1CN(C(=O)Nc1ccccc1F)CC2)NC1CC1` yielded an RP-LC retention time of 618 s.

`CCn1ccc2c(cc(C(=O)Nc3ccc(Cl)cc3)n2C)c1=O` showed an RP-LC retention time of 819 s.

In the case of `Cc1ccc(Cl)c(NC(=O)c2[nH]c3cc(C)sc3c2CN(C)C)c1`, the RP-LC retention time is reported as 688 s.

`O=C1COc2ccccc2N1Cc1nc(-c2ccc(F)c(Cl)c2)no1` showed an RP-LC retention time of 1090 s.

With `CC(C)n1cc(C2=CCN(C(=O)NC3CCCCC3)CC2)c2cccnc21` the RP-LC retention time was 945 s.

Compound `Cc1ccc(NC(=O)N2CCc3c(c(-c4nc(C)no4)nn3C)C2)cc1` has an RP-LC retention time of 750 s.

With `Cc1ccc(-c2nc3cnccn3c2Nc2cccc(Cl)c2C)cc1` the RP-LC retention time was 1080 s.

Compound `COc1ccc(-c2[nH]ncc2CN2CC(F)(F)C[C@H]2CN2CCOCC2)cc1OC` has an RP-LC retention time of 594 s.

For `Cn1nc(C(=O)N2C[C@@H]3C[C@H]2C[C@@H]3NC(=O)c2cccs2)c2ccccc21`, the RP-LC retention time was 766 s.

With `O=C(Nc1ccc(Cl)cc1)C1CCCN(S(=O)(=O)Cc2ccccc2)C1` (configuration not stated) the RP-LC retention time was 976 s.

Work on `Cc1ccc(NC(=O)Cc2c(C)nn(-c3nc(-c4ccc(Cl)cc4)cs3)c2C)c(C)c1` yielded an RP-LC retention time of 1280 s.

Work on `Cc1cccc(NC(=O)N2CCCC2c2nc(-c3ccccc3)no2)c1C` (configuration not stated) yielded an RP-LC retention time of 977 s.

Compound `CC(=O)N1CCc2nn(C)c(=O)n2CC1` has an RP-LC retention time of 543 s.

In the case of `Cc1nc2ccn(Cc3ccco3)c(=O)c2cc1C(=O)NCCN1CCOCC1`, the RP-LC retention time is reported as 585 s.

`COc1ccc(OCc2nc(-c3cccc(-c4csc(C5CC5)n4)c3)no2)cc1` showed an RP-LC retention time of 1300 s.

Compound `CCOc1ccc(N2C=C(C#N)S(=O)(=O)c3ccc(Cl)cc32)cc1` has an RP-LC retention time of 1040 s.

`CN(c1ccc(F)cc1)S(=O)(=O)N1CCCC(C(=O)NCCCN2CCc3ccccc3C2)C1` (configuration not stated) gave an RP-LC retention time of 706 s.

Compound `O=C(CSc1nccn1Cc1ccco1)Nc1ccccc1F` has an RP-LC retention time of 600 s.

With `Cc1ccsc1CN1CC(Oc2ccc(-c3noc(-c4ccncc4)n3)cc2)C1` the RP-LC retention time was 715 s.

`COc1ccc2c(c1)C1(CCN(S(=O)(=O)c3ccc(F)c(F)c3)C1)C(=O)N2C` (configuration not stated) gave an RP-LC retention time of 964 s.

Work on `O=C(Nc1ccc(F)cc1)Nc1cccc(-c2ccc(N3CCOCC3)nn2)c1` yielded an RP-LC retention time of 697 s.

Compound `CCOc1ccc(N2C(=O)CC(c3ccc(OC)c(OC)c3)CC2=O)cc1` has an RP-LC retention time of 841 s.

In the case of `Cc1noc(-c2ccc(=O)n(Cc3ccc(F)cc3)n2)n1`, the RP-LC retention time is reported as 807 s.

With `Cc1noc(-c2ccnc(-n3ncc(C(=O)NC4CCCC4)c3C)c2)n1` the RP-LC retention time was 836 s.

Compound `O=C(Nc1ccc(OCC(=O)N2CCN(c3ccccc3)CC2)nc1)C1CC1` has an RP-LC retention time of 730 s.

Compound `CCN1C(=O)COc2ccc(-c3noc(-c4ccc(Cl)cc4)n3)cc21` has an RP-LC retention time of 1220 s.

Work on `COc1ccc(CN(Cc2ccccc2)Cc2cc(=O)n3cc(Cl)ccc3n2)cc1` yielded an RP-LC retention time of 721 s.

Compound `COc1ccc(C2CC(=O)N(c3ccc(Cl)cc3)C(=O)C2)cc1OC` has an RP-LC retention time of 859 s.

`Cc1ccccc1CNS(=O)(=O)c1cc(-c2[nH]ncc2C(=O)N(C)C)oc1C` gave an RP-LC retention time of 701 s.

With `CC(C)CCNC(=O)C1CCCCC(=O)N1` (configuration not stated) the RP-LC retention time was 670 s.

`Cc1nc2cc(-c3noc(-c4cccc(Cl)c4)n3)ccc2o1` showed an RP-LC retention time of 1210 s.
